In patent publication US9815787B2, “Sulfonamide derivative or pharmaceutically acceptable acid addition salt thereof” (UNIVERSITY OF TSUKUBA, priority 2013, dated 2017):
pEC50: −log10 of the molar value.

Target: T1, OX2R (Homo sapiens, UniProt O43614)
T1 construct: expressed in transfected cells; host or cells: CHO (Chinese hamster ovary) cells constitutively expressing the OX2R gene and NFAT-luciferase (CHOOX2R)
T1 sequence (O43614 1-444): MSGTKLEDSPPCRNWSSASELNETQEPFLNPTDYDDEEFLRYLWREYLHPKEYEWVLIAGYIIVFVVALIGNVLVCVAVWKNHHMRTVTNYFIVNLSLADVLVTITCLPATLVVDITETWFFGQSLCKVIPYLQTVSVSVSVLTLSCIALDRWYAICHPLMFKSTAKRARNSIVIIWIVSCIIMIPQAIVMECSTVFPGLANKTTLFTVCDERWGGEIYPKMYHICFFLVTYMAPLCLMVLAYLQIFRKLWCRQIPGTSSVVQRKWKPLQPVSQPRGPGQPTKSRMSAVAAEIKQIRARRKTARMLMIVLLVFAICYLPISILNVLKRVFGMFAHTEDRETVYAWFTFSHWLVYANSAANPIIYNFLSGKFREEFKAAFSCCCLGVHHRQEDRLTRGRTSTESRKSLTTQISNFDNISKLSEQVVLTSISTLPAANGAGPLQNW
Test: Evaluation of agonist activity against OX2R (CHOOX2R cells, Fura2AM fluorescence, FDSS3000)
Type: cell-based
Protocol: Evaluation of Agonist Activity Against OX2R
NFAT-luciferase gene and OX2R gene were each constitutively expressed in CHO cell, which is a cell line derived from Chinese hamster ovary to establish a cell line (CHOOX2R). The cells thereof were sown on a 96 well plate at 10000 cells/well, and cultured in a 5% FBS-added DMEM medium for 48 hr. […] After washing, HEPES buffer (75 μL) was added, a test compound solution (25 μL) was added, and changes in the fluorescence intensity were measured by FDSS3000 (Hamamatsu Photonics K.K.). The test compound was dissolved in DMSO (final concentration of DMSO was 1%), and diluted with HEPES buffer to a final concentration of 0.1 μM, 1.0 μM or 10 μM.

[1] = test compound 0.1 μM; CHOOX2R cells; relative to orexin-A as full agonist (100%)
[2] = test compound 1.0 μM; CHOOX2R cells; relative to orexin-A as full agonist (100%)
[3] = test compound 10 μM; CHOOX2R cells; relative to orexin-A as full agonist (100%)
[4] = test compound 0.1 μM; relative to orexin-A as full agonist (100%); CHOOX2R cells
[5] = test compound 1.0 μM; relative to orexin-A as full agonist (100%); CHOOX2R cells
[6] = test compound 10 μM; relative to orexin-A as full agonist (100%); CHOOX2R cells
[7] = OX2R agonist activity; CHOOX2R cells
[8] = conversion with orexin-A as full agonist (maximum agonist activity 100%)

For COc1cncc(-c2ccc(OC)c(S(=O)(=O)Nc3cccc(NCCNC(=O)c4ccccc4OC)c3)c2)c1 [Example 97, 2-methoxy-N-(2-((3-(2-methoxy-5-(5-methoxypyridin-3-yl)phenylsulfonamido)phenyl)amino)ethyl)benzamide], the “Response (0.1 μM (%))” value [1] was less than 5%, the “Response (1.0 μM (%))” value [2] was 12% and the “Response (10 μM (%))” value [3] was 37%.
In the case of COc1cccc(C(=O)NCCNc2cccc(NS(=O)(=O)c3cc(-c4cc(F)ccc4Cl)ccc3OC)c2)c1 [Example 33, N-(2-((3-(2′-chloro-5′-fluoro-4-methoxy-[1,1′-biphenyl]-3-ylsulfonamide)phenyl)amino)ethyl)-3-methoxybenzamide], the “Response (0.1 μM (%))” value [4] was less than 5%, the “Response (1.0 μM (%))” value [5] was 31% and the “Response (10 μM (%))” value [6] was 93%.
COc1ccc(-c2cccc(C(=O)N(C)C)c2)cc1S(=O)(=O)Nc1cccc(NCCNC(=O)c2occc2C)c1 [Example 68, N-(2-((3-(3′-(dimethylcarbamoyl)-4-methoxy-[1,1′-biphenyl]-3-ylsulfonamido)phenyl)amino)ethyl)-3-methylfuran-2-carboxamide] was tested, and the “Response (0.1 μM (%))” value [1] was 42%, the “Response (1.0 μM (%))” value [2] was 86% and the “Response (10 μM (%))” value [3] was 74%.
For COc1ccc(-c2cccc(C(=O)N(C)C)c2)cc1S(=O)(=O)Nc1cccc(NCCNC(=O)c2ccccc2C(F)(F)F)c1 [Example 69, 4′-methoxy-N,N-dimethyl-3′-(N-(3-((2-(2-(trifluoromethyl)benzamido)ethyl)amino)phenyl)sulfamoyl)-[1,1′-biphenyl]-3-carboxamide], the “Response (0.1 μM (%))” value [1] was 67%, the “Response (1.0 μM (%))” value [2] was 123% and the “Response (10 μM (%))” value [3] was 111%.
With COc1cccc(C(=O)NCCNc2cccc(NS(=O)(=O)c3cc(-c4ncccc4F)ccc3OC)c2)c1 [Example 93, N-(2-((3-(5-(3-fluoropyridin-2-yl)-2-methoxyphenylsulfonamido)phenyl)amino)ethyl)-3-methoxybenzamide] the “Response (0.1 μM (%))” value [1] was less than 5%, the “Response (1.0 μM (%))” value [2] was 33% and the “Response (10 μM (%))” value [3] was 73%.
For COc1ccc(C(=O)NCCNc2cccc(NS(=O)(=O)c3cc(-c4ccccc4F)ccc3OC)c2)cc1 [Example 3, N-(2-((3-(2′-fluoro-4-methoxy-[1,1′-biphenyl]-3-ylsulfonamide)phenyl)amino)ethyl)-4-methoxybenzamide], the “Response (0.1 μM (%))” value [4] was less than 5%, the “Response (1.0 μM (%))” value [5] was 11% and the “Response (10 μM (%))” value [6] was 50%.
With COc1ccc(N(C)C)cc1C(=O)NCCNc1cccc(NS(=O)(=O)c2cc(-c3ccccc3F)ccc2OC)c1 [Example 5, 5-(dimethylamino)-N-(2-((3-(2′-fluoro-4-methoxy-[1,1′-biphenyl]-3-ylsulfonamide)phenyl)amino)ethyl)-2-methoxybenzamide] the “Response (0.1 μM (%))” value [4] was less than 5%, the “Response (1.0 μM (%))” value [5] was less than 5% and the “Response (10 μM (%))” value [6] was 23%.
COc1ccc(-c2cccc(C(=O)N(C)C)c2)cc1S(=O)(=O)Nc1cccc(NCCNC(=O)c2cccc(C#N)c2)c1 [Example 72, 3′-(N-(3-((2-(3-cyanobenzamido)ethyl)amino)phenyl)sulfamoyl)-4′-methoxy-N,N-dimethyl-[1,1′-biphenyl]-3-carboxamide] was tested, and the “Response (0.1 μM (%))” value [1] was less than 5%, the “Response (1.0 μM (%))” value [2] was 16% and the “Response (10 μM (%))” value [3] was 88%.
In the case of COc1ccc(-c2cccc(C(=O)N(C)C)c2)cc1S(=O)(=O)Nc1cccc(NCCNC(=O)c2cc(F)cc(F)c2)c1 [Example 54, 3′-(N-(3-((2-(3,5-difluorobenzamido)ethyl)amino)phenyl)sulfamoyl)-4′-methoxy-N,N-dimethyl-[1,1′-biphenyl]-3-carboxamide], the pEC50 [7] was 6.20, the Emax [8] was 94% and the “Response (0.1 μM (%))” value [1] was 33%. The “Response (1.0 μM (%))” value [2] was 168% and the “Response (10 μM (%))” value [3] was 126%.
For COc1ccc(C(=O)NCCNc2cccc(NS(=O)(=O)c3cc(-c4cccc(C(=O)N(C)C)c4)ccc3OC)c2)cc1 [Example 44, 4′-methoxy-3′-(N-(3-((2-(4-methoxybenzamido)ethyl)amino)phenyl)sulfamoyl)-N,N-dimethyl-[1,1′-biphenyl]-3-carboxamide], the pEC50 [7] was 5.98, the Emax [8] was 94% and the “Response (0.1 μM (%))” value [1] was less than 5%. The “Response (1.0 μM (%))” value [2] was 28% and the “Response (10 μM (%))” value [3] was 94%.
With COc1ccccc1C(=O)NCCNc1cccc(NS(=O)(=O)c2cc(-c3ccccc3OC)ccc2OC)c1 [Example 12, N-(2-((3-(2′,4-dimethoxy-[1,1′-biphenyl]-3-ylsulfonamide)phenyl)amino)ethyl)-2-methoxybenzamide] the “Response (0.1 μM (%))” value [4] was less than 5%, the “Response (1.0 μM (%))” value [5] was 44% and the “Response (10 μM (%))” value [6] was 73%.
For COc1cc(OC)cc(-c2ccc(OC)c(S(=O)(=O)Nc3cccc(NCCNC(=O)c4ccccc4OC)c3)c2)c1 [Example 36, 2-methoxy-N-(2-((3-(3′,4,5′-trimethoxy-[1,1′-biphenyl]-3-ylsulfonamide)phenyl)amino)ethyl)benzamide], the “Response (0.1 μM (%))” value [1] was less than 5%, the “Response (1.0 μM (%))” value [2] was 11% and the “Response (10 μM (%))” value [3] was 68%.
For COc1ccc(-c2cccc(C(=O)N(C)C)c2)cc1S(=O)(=O)Nc1cccc(NCCNC(=O)c2cccc(F)c2)c1 [Example 52, 3′-(N-(3-((2-(3-fluorobenzamido)ethyl)amino)phenyl)sulfamoyl)-4′-methoxy-N,N-dimethyl-[1,1′-biphenyl]-3-carboxamide], the pEC50 [7] was 6.11, the Emax [8] was 84% and the “Response (0.1 μM (%))” value [1] was 40%. The “Response (1.0 μM (%))” value [2] was 79% and the “Response (10 μM (%))” value [3] was 64%.
With COc1ccc(-c2cccc(C(=O)N(C)C)c2)cc1S(=O)(=O)Nc1cccc(NCCNC(=O)c2cncc(Cl)c2)c1 [Example 58, 5-chloro-N-(2-((3-(3′-(dimethylcarbamoyl)-4-methoxy-[1,1′-biphenyl]-3-ylsulfonamido)phenyl)amino)ethyl)nicotinamide] the “Response (0.1 μM (%))” value [1] was less than 5%, the “Response (1.0 μM (%))” value [2] was 130% and the “Response (10 μM (%))” value [3] was 119%.
With COc1ccccc1C(=O)NCCNc1cccc(NS(=O)(=O)c2cc(-c3cc(Cl)ccc3Cl)ccc2OC)c1 [Example 25, N-(2-((3-(2′,5′-dichloro-4-methoxy-[1,1′-biphenyl]-3-ylsulfonamide)phenyl)amino)ethyl)-2-methoxybenzamide] the “Response (0.1 μM (%))” value [4] was less than 5%, the “Response (1.0 μM (%))” value [5] was 7% and the “Response (10 μM (%))” value [6] was 38%.
In the case of COc1ccc(-c2cccc(C(=O)N(C)C)c2)cc1S(=O)(=O)Nc1cccc(NCCNC(=O)c2ncccc2Cl)c1 [Example 51, 3-chloro-N-(2-((3-(3′-(dimethylcarbamoyl)-4-methoxy-[1,1′-biphenyl]-3-ylsulfonamido)phenyl)amino)ethyl)picolinamide], the pEC50 [7] was 5.48, the Emax [8] was 87% and the “Response (0.1 μM (%))” value [1] was less than 5%. For the same compound, the “Response (1.0 μM (%))” value [2] was 9% and the “Response (10 μM (%))” value [3] was 87%.
With COc1cccc(C(=O)NCCNc2cccc(NS(=O)(=O)c3cc(-c4c(F)cccc4F)ccc3OC)c2)c1 [Example 18, N-(2-((3-(2′,6′-difluoro-4-methoxy-[1,1′-biphenyl]-3-ylsulfonamide)phenyl)amino)ethyl)-3-methoxybenzamide] the “Response (0.1 μM (%))” value [4] was less than 5%, the “Response (1.0 μM (%))” value [5] was 13% and the “Response (10 μM (%))” value [6] was 151%.
For COc1ccc(-c2cccc(C(=O)N(C)C)c2)cc1S(=O)(=O)Nc1cccc(NCCNC(=O)c2ccccc2F)c1 [Example 43, 3′-(N-(3-((2-(2-fluorobenzamido)ethyl)amino)phenyl)sulfamoyl)-4′-methoxy-N,N-dimethyl-[1,1′-biphenyl]-3-carboxamide], the pEC50 [7] was 6.52, the Emax [8] was 94% and the “Response (0.1 μM (%))” value [1] was less than 5%. The “Response (1.0 μM (%))” value [2] was 55% and the “Response (10 μM (%))” value [3] was 94%.
With COc1cccc(C(=O)NCCNc2cccc(NS(=O)(=O)c3cc(-c4c(F)cccc4OC)ccc3OC)c2)c1 [Example 24, N-(2-((3-(2′-fluoro-4,6′-dimethoxy-[1,1′-biphenyl]-3-ylsulfonamide)phenyl)amino)ethyl)-3-methoxybenzamide] the “Response (0.1 μM (%))” value [4] was less than 5%, the “Response (1.0 μM (%))” value [5] was less than 5% and the “Response (10 μM (%))” value [6] was less than 5%.
With COc1ccc(Br)cc1C(=O)NCCNc1cccc(NS(=O)(=O)c2cc(-c3ccccc3F)ccc2OC)c1 [Example 4, 5-bromo-N-(2-((3-(2′-fluoro-4-methoxy-[1,1′-biphenyl]-3-ylsulfonamide)phenyl)amino)ethyl)-2-methoxybenzamide] the “Response (0.1 μM (%))” value [4] was less than 5%, the “Response (1.0 μM (%))” value [5] was less than 5% and the “Response (10 μM (%))” value [6] was 17%.
In the case of COc1cccc(C(=O)NCCNc2cccc(NS(=O)(=O)c3cc(-c4cccc(C(=O)N5CCCC5)c4)ccc3OC)c2)c1 [Example 86, 3-methoxy-N-(2-((3-(4-methoxy-3′-(pyrrolidine-1-carbonyl)-[1,1′-biphenyl]-3-ylsulfonamido)phenyl)amino)ethyl)benzamide], the “Response (0.1 μM (%))” value [1] was 10%, the “Response (1.0 μM (%))” value [2] was 89% and the “Response (10 μM (%))” value [3] was 81%.
